# Read-outs that look alike come from different tables or passages of the source.
# Experiments:
# [1] = test system: POPC and POPC:Chol (2:1) LUV, erythrocytes and PBMCs; type: binding, human
# [2] = pH 7.4
# [3] = pH 7.4; remark: listed apart in the source
# PBMCs = type: binding, human; conditions: for Kd: read-out: Kd (apparent dissociation constant), PBMCs
# Erythrocytes = type: binding, human; conditions: for Kd: read-out: Kd (apparent dissociation constant), Erythrocytes
molecule,measurement,setting,value
CC(C)CCC[C@@H](C)[C@H]1CC[C@H]2[C@@H]3CC=C4C[C@@H](O)CC[C@]4(C)[C@H]3CC[C@]12C [cholesterol],change in membrane dipole potential (di-8-ANEPPS),[1],no changes in dipole potential were observed
VIKI–GSGSG-C-dPEG4–Cys–(CH2CONH2) [VIKI-dPEG4],secondary structure by CD,[2],random coil
same,"maximum fluorescence emission wavelength, free in solution",[3],356 nm
VIKI–GSGSG–C-dPEG4–Cys-(PEG4-bis-tocopherol) [VIKI-dPEG4-bisToco],"Rmin, PBMCs",PBMCs,−0.27 ± 0.01
same,Kd,PBMCs,180 ± 40 nM
same,"Rmin, Erythrocytes",Erythrocytes,−0.22 ± 0.01
same,Kd,Erythrocytes,90 ± 30 nM
VIKI–GSGSG–C-dPEG4–Cys–(PEG4-bis-cholesterol) [VIKI-dPEG4-bisChol],"Rmin, PBMCs",PBMCs,−0.24 ± 0.01
same,Kd,PBMCs; 1.4% DMSO,220 ± 50 nM
same,"Rmin, Erythrocytes",Erythrocytes,−0.36 ± 0.01
same,Kd,Erythrocytes; 1.4% DMSO,70 ± 20 nM
VIKI–GSGSG–C-dPEG4–Cys–cholesterol [VIKI-dPEG4-Chol],"Rmin, PBMCs",PBMCs,−0.23 ± 0.02
same,Kd,PBMCs; 1.4% DMSO,300 ± 120 nM
same,"Rmin, Erythrocytes",Erythrocytes,−0.33 ± 0.01
same,Kd,Erythrocytes; 1.4% DMSO,130 ± 30 nM
VIKI–GSGSG–C-dPEG4–Cys–tocopherol [VIKI-dPEG4-Toco],"Rmin, PBMCs",PBMCs,−0.29 ± 0.02
same,Kd,PBMCs,510 ± 120 nM
same,"Rmin, Erythrocytes",Erythrocytes,−0.30 ± 0.01
same,Kd,Erythrocytes,140 ± 30 nM
tocopherol,change in membrane dipole potential (di-8-ANEPPS),[1],no changes in dipole potential were observed

# From article PMC8945041 (Biomedicines, 2022)
